# How the values were obtained:
# [1] = system: BALB/c 3T3 neo-only transfectants (18neo); experiment: 51Cr-release CTL assay with T1272-specific effectors on peptide-sensitized fibroblast targets; type: cell-based, BALB/c mice; conditions: for % specific 51Cr release, Immune spleen cells: 0.1 μM peptide on 18neo targets, effectors spleen cells of 10 μM T1272 peptide-pulsed spleen cell-immunized BALB/c mice restimulated with 0.1 μM T1272; for % specific 51Cr release, Immune spleen cells / % specific 51Cr release, CTL line: E/T 40:1; for % specific 51Cr release, CTL line: 1.0 μM peptide on 18neo targets, short-term T1272-specific BALB/c CTL line (3 weeks in culture); for peptide concentration able to sensitize targets for lysis: titrated in the killing assay, T1272 peptide-immune splenic CTL at 40:1 (FIG. 1C)
# Description: CTL generation: BALB/c (H-2^d) mice were immunized intravenously with 20×10^6 spleen cells pulsed with various concentrations of T1272 peptide for two hours at 37° C. and irradiated at 2,000 rad (by the method of H. Takahashi, Y. Nakagawa, K. Yokomuro, & J. A. Berzofsky, submitted). One week later, immune spleen cells (3×10^6/ml) were restimulated for six days in vitro with various concentrations of T1272 peptide in 10% Rat-T Stim, without Con A (Collaboration Research Incorporated, Bedford, Mass.) in 24-well culture plates in complete T-cell medium (CTM)(14), a 1:1 mixture of RPMI 1640 and Eagle-Hanks amino acid medium containing 10% fetal bovine serum, 2 mM L-glutamine, penicillin (100 U/ ml), streptomycin (100 μg/ml), and 5×10^−5 M 2 mercaptoethanol.
# CTL Assay. Cytolytic activity of the restimulated cells was measured as described (15) by using a six-hour assay with various ^51Cr-labeled targets. For testing the peptide specificity of CTL, effectors and ^51CR-labeled targets were mixed with various concentrations of peptide at the beginning of the assay. The percentage specific ^51CR release was calculated as 100(experimental release−spontaneous release)/(maximum release−spontaneous release). Maximum release was determined from supernatants of cells that were lysed by addition of 5% Triton X-100. Spontaneous release was determined from target cells incubated without added effector cells.
# To more precisely identify the T-cell epitope recognized by T1272-specific BALB/c CTL, and to test the hypothesis that the response was specific for the neo-antigenic determinant created by the mutation, a series of peptides was synthesized and various concentrations of these peptides were individually added to effectors and ^51Cr-labeled fibroblast targets at the start of the assay culture. We measured the cytotoxic activity of two types of effector cells: spleen cells from mice immunized with peptide-pulsed cells stimulated once in vitro with 0.1 μM T1272 peptide (presumably polyclonal·effector populations), and a short-term CTL line (possibly an oligoclonal population, although only three weeks in culture).
# CTL effectos were spleen cells derived from die 10 μM T1272 peptide-pulsed spleen cell-immunized BALB/c mice (restimulated 6 days with 0.1 μM T1272 peptide) (left) or a short-term T1272-specific BALB/c CTL line (after 3 weeks in culture) (right). BALB/c 3T3 neo-only transfectants (18neo) (H-2^d) plus 0.1 μM synthetic peptide were used as targets with BALB/c spleen effectors or with 1.0 μM peptide for the CTL line. […] The effector/target cell ratio was 40:1. The arrow and bold-face amino acids indicate the site of the 135 Cys to Tyr mutation. Underlined amino acids correspond to human p53 residues which differ from the mouse p53.
# [2] = system: HIV-1-IIIB gp160-gene transfected BALB/c.3T3 fibroblasts; experiment: CTL induced by i.v. immunization with peptide-pulsed irradiated cells, 51Cr release on gp160 transfectants; type: in vivo, BALB/c mice; conditions: cells pulsed with the 10-mer before immunization; without adding IL-2 exogenously (FIG. 9)
# Description: CTL Generation. Immunizations were carried out either subcutaneously (s.c.) in the base of the tail, or intraperitoneally (i.p.), or intravenously (i.v.) from the tail vein with 27 G needle. Several weeks later, immune spleen cells (5×10^6/ml in 24-well culture plates in complete T-cell medium (a 1:1 mixture of RPMI 1640 and EHAA medium containing 10% FCS, 2 mM L-glutamine, 100 U/ml penicillin, 100 μg/ml streptomycin and 5×10^−5M 2-mercaptoethanol)) were restimulated for 6 days in vitro with mitomycin-C treated HIV-1-IIIB envelope gp160 gene transfected histocompatible BALB/c.3T3 fibroblasts alone or in the presence of 10% Rat Con-A supernatant-containing medium (Rat T-cell Monoclone) (Collaborative Research, Inc., Bedford, Mass.) or 10 U/ml of recombinant mouse IL-2 (rIL-2) (Genzyme, Boston, Mass.).
# CTL assay. After culture for 6 days, cytolytic activity of the restimulated cells was measured as previously described (21) using a 6 hr assay with various ^51Cr-labelled targets, as indicated in the figure legends. […] The percent specific ^51Cr release was calculated as 100 (experimental release−spontaneous release)/(maximum release−spontaneous release). Maximum release was determined from supernatants of cells that were lysed by addition of 5% Triton-X 100. Spontaneous release was determined from target cells incubated without added effector cells. […]
# [3] = system: L-cell (H-2^k) transfectants expressing D^d, L^d and K^d; experiment: MHC-restriction mapping of T1272 peptide recognition by CTL; type: cell-based, mouse; conditions: 0.1 μM peptide T1272, K^d L-cell transfectants (FIG. 2B)
# Description: MHC-restriction mapping. L-cell (H-2^k) transfectants expressing D^d (T4.8.3 (18), L^d (T1.1.1 (19) and K^d (B4III-2(20)) were used as targets, in the presence or absence of 0.1 μM peptide T1272. neo gene transfected BALB/c 3T3 fibroblasts (18neo) (H-2^d) (21) were used as a positive control, and neo gene-transfected L-cells L28 (H-2^k) (21) were used as a negative target control, also in the presence or absence of peptide.
# The BALB/c 3T3 (18neo) fibroblasts (H-2^d) used as targets in these experiments express class I but not class II MHC gene products.
# In this experiment, 2×10^3 51Cr-labeled targets were cultured with T1272-immune splenic effector cells (a short-term line stimulated twice with 0.1 μM peptide) at several effector/target cell ratios in the presence or absence of 0.1 μM peptide T1272. L-cell (H-2^k) transfectants expressing D^d (T4.8.3 (18)), L^d (T1.1.1 (19)) and K^d (B4III-2 (20)) were used as targets. neo gene transfected BALB/c 3T3 fibroblasts (isneo) (H-2^d) (21) were used as a positive control, and neo gene-transfected L-cells L28 (H-2^k) (21) were used as a negative target control. Spontaneous release was less than 20% of maximal release. Although background without peptide varied among the different transfectants from experiment to experiment, T1272 peptide-specific lysis was consistently seen only in the cells expressing K^d, in five different experiments. […]
Sequence,"% specific 51Cr release, Immune spleen cells [1] [%]","% specific 51Cr release, CTL line [1] [%]",priming of CD8+ CTL by minimal peptide [2],peptide concentration able to sensitize targets for lysis [1],class I MHC restriction of peptide recognition by CTL [3]
ALNKMFYQLAKT [Peptide T12],9.7,−9.1,–,–,–
FYQLAKTCPV [Peptide V10],62.7,53.7,–,–,–
"KMFYQLAKTCPVQL [Peptide L14, C-terminal 14 residues of the T1272 peptide]",22.2,22.1,–,–,–
RGPGRAFVTI [Peptide 18IIIB-I-10],–,–,can prime CD8^+ CTL almost as well as 18IIIB,–,–
RIQRGPGRAFVTIGK [Peptide P18IIIB],–,–,–,not recognized at any concentration,–
TYSPALNKMFYQL [Peptide L13],14.7,−8.9,–,–,–
TYSPALNKMFYQLAKTCPVQL [Peptide T1272],35.4,24.7,–,< 0.1 µM,restricted by the class I molecule K^d
